The values below come from US6770659B2, “Benzoyl piperidine compounds” (SK Corporation, priority 2002, dated 2004).

Read-outs that look alike come from different tables or passages of the source.

This test relates to climbing behavior induced by apomorphine in mice. As to the kind of experiment: Climbing Mouse Assay (anti-climbing behavior test). The test is classed as in vivo. The following applies: ICR CD strain male mice, apomorphine challenge; for ED50: Mus musculus. The text has this:
This activity was examined through the anti-climbing behavior test, i.e. the test for suppressing the climbing behavior induced by apomorphine in mice. A designated amount of the test compound was intraperitoneally or orally administered to several groups of ICR CD strain male mice (body weight, 20 to 25 g; one group, 6 mice), and each of the animals was charged in an individual column cage of 12 cm in diameter and 14 cm in height having metal poles (each pole, 2 mm in diameter) vertically installed and arranged along the periphery with interval of 1 cm.
Compounds to be tested for antipsychotic activity are injected intraperitoneally or given orally at various time intervals, e.g. 30 minutes, 60 minutes, etc., prior to the apomorphine challenge at a screening dose of 0.1-60 mg/kg.
For evaluation of climbing, 3 readings are taken at 10, 20 and 30 minutes after apomorphine administration according to the following scale:
Mice consistently climbing before the injection of apomorphine will be discarded.
With full-developed apomorphine climbing, the animals are hanging on to the cage walls, rather motionless, over longer periods of time. By contrast, climbing due to mere motor stimulation usually only lasts a few seconds.
The climbing scores are individually totaled (maximal score: 12 per mouse over 3 readings) and the total score of the control group (vehicle intraperitoneally-apomorphine subcutaneously) is set to 100%. ED50 values with 95% confidence limits, calculated by a linear regression analysis, of some of the compounds of the instant invention as well as a standard antipsychotic agent are presented in Table I.

Setting [1] is: intraperitoneal administration, read-out: Climbing Mouse Assay ED50 i.p.
Setting [2] is: oral administration, read-out: Climbing Mouse Assay ED50 p.o. (converted).

In the case of `CC(C)c1ccc(C(CN2CCC(C(=O)c3ccc(F)cc3)CC2)n2cncn2)cc1.Cl.Cl.Cl` (centres unmarked) [(4-Fluoro-phenyl)-{1-[2-(4-isopropyl-phenyl)-2-[1,2,4]triazoyl-1-yl-ethyl]-piperidin-4-yl}-methanone trihydrochloride], the “Climbing Mouse Assay ED50 i.p.” value (intraperitoneal administration) is 3.1 mg/kg. Also, under “oral administration”, the “Climbing Mouse Assay ED50 p.o.” value was 4.7 mg/kg.

Usually ED50 stands for the dose at which the effect has come halfway, by size or by number of responders. For the compound `COC(CN1CCC(C(=O)c2ccc(F)cc2)CC1)c1ccc(C(C)C)cc1` (centres unmarked) [(4-Fluoro-phenyl)-{1-[2-(4-isopropyl-phenyl)-2-methoxy-ethyl]-piperidin-4-yl}-methanone], the ED50 reads like this: under setting [1], 0.17 mg/kg; under setting [2], 0.41 mg/kg.

As for `COC(CN1CCC(C(=O)c2ccc(F)cc2)CC1)c1ccc([N+](=O)[O-])cc1.Cl` (centres unmarked) [(4-Fluoro-phenyl)-{1-[2-methoxy-2-(4-nitro-phenyl)-ethyl]-piperidin-4yl}-methanone; hydrochloride], the ED50 by setting is: under setting [1], 5.9 mg/kg; under setting [2], 51.2 mg/kg.

`CO[C@@H](CN1CCC(C(=O)c2ccc(F)cc2)CC1)c1ccc([N+](=O)[O-])cc1` [(R)-(4-Fluoro-phenyl)-{1-[2-methoxy-2-(4-nitro-phenyl)-ethyl]-piperidin-4-yl}-methanone]: under setting [1], the ED50 worked out at 24.2 mg/kg.

In the case of `Cl.NC(=O)O[C@@H](CN1CCC(C(=O)c2ccc(F)cc2)CC1)c1ccccc1` [(R)-Carbamic acid 2-[4-(4-fluoro-benzoyl)-piperidin-1-yl]-1-phenyl-ethyl ester; hydrochloride], the ED50 under setting [1] is 17.8 mg/kg and the ED50 under setting [2] was 46.2 mg/kg.

As to `CO[C@H](CN1CCC(C(=O)c2ccc(F)cc2)CC1)c1ccc(C(C)C)cc1` [(S)-(4-Fluoro-phenyl)-{1-[2-(4-isopropyl-phenyl)-2-methoxy-ethyl]-piperidin-4-yl}-methanone], the ED50 was 0.13 mg/kg under setting [1] and 0.09 mg/kg under setting [2].

As for `CO[C@H](CN1CCC(C(=O)c2ccc(F)cc2)CC1)c1ccc([N+](=O)[O-])cc1` [(S)-(4-Fluoro-phenyl)-{1-[2-methoxy-2-(4-nitro-phenyl)-ethyl]-piperidin-4-yl}-methanone], the ED50 is 4.5 mg/kg under setting [1] and 16.9 mg/kg under setting [2].

On to `Cl.NC(=O)O[C@H](CN1CCC(C(=O)c2ccc(F)cc2)CC1)c1ccccc1` [(S)-Carbamic acid 2-[4-(4-fluoro-benzoyl)-piperidin-1-yl]-1-phenyl-ethyl ester; hydrochloride], for which the ED50 is 0.96 mg/kg under setting [1] and 4.3 mg/kg under setting [2].

As for `CCc1ccc([C@@H](CN2CCC(C(=O)c3ccc(F)cc3)CC2)OC)cc1` [(S)-{1-[2-(4-Ethyl-phenyl)-2-methoxy-ethyl]-piperidin-4-yl}-(4-fluoro-phenyl)-methanone], the ED50 is 0.31 mg/kg under setting [1] and 1.2 mg/kg under setting [2].

With `O=C(c1ccc(F)cc1)C1CCN(CC(COc2ccccc2)OC(=O)N2CCCCCC2)CC1` (centres unmarked) [Azepane-1-carboxylic acid 1-[4-(4-fluoro-benzoyl)-piperidin-1-ylmethyl]-2-phenoxy-ethyl ester], the ED50 under setting [1] is 1.5 mg/kg.

As to `Cl.O=C(NCc1ccccc1)OC(CN1CCC(C(=O)c2ccc(F)cc2)CC1)c1ccccc1` (centres unmarked) [Benzyl-carbamic acid 2-[4-(4-fluoro-benzoyl)-piperidin-1-yl]-1-phenyl-ethyl ester; hydrochloride], the ED50 under setting [1] stood at 2.2 mg/kg and the ED50 under setting [2] was 7.1 mg/kg.

`Cl.NC(=O)OC(CN1CCC(C(=O)c2ccc(F)cc2)CC1)c1ccc(Cl)c(Cl)c1` (centres unmarked) [Carbamic acid 1-(3,4-dichloro-phenyl)-2-[4-(4-fluoro-benzoyl)-piperidin-1-yl]-ethyl ester; hydrochloride]: the ED50 is 0.32 mg/kg under setting [1] and 0.48 mg/kg under setting [2].

On to `Cl.NC(=O)OC(CN1CCC(C(=O)c2ccc(F)cc2)CC1)c1cccc(Cl)c1` (centres unmarked) [Carbamic acid 1-(3-chloro-phenyl)-2-[4-(4-fluoro-benzoyl)-piperidin-1-yl]-ethyl ester; hydrochloride], for which the ED50 under setting [1] was found to be 0.56 mg/kg and the ED50 under setting [2] was 0.94 mg/kg.

Turning to `Cl.NC(=O)OC(COc1ccccc1)CN1CCC(C(=O)c2ccc(F)cc2)CC1` (centres unmarked) [Carbamic acid 1-[4-(4-fluoro-benzoyl)-piperidin-1-ylmethyl]-2-phenoxy-ethyl ester; hydrochloride], the 50% effective dose (ED50) under setting [1] stood at 2 mg/kg and the ED50 under setting [2] is 8.5 mg/kg.

As for `Cl.NC(=O)OC(CN1CCC(C(=O)c2ccc(F)cc2)CC1)c1cccc([N+](=O)[O-])c1` (centres unmarked) [Carbamic acid 2-[4-(4-fluoro-benzoyl)-piperidin-1-yl]-1-(3-nitro-phenyl)-ethyl ester; hydrochloride], under setting [1], the ED50 came out at 2.6 mg/kg.

For `Cl.NC(=O)OC(CN1CCC(C(=O)c2ccc(F)cc2)CC1)c1ccc(C(F)(F)F)cc1` (centres unmarked) [Carbamic acid 2-[4-(4-fluoro-benzoyl)-piperidin-1-yl]-1-(4-trifluoromethyl-phenyl)-ethyl ester; hydrochloride], the ED50 under setting [1] was 1.8 mg/kg.

As for `Cl.NC(=O)OC(CN1CCC(C(=O)c2ccc(F)cc2)CC1)c1ccccc1` (centres unmarked) [Carbamic acid 2-[4-(4-fluoro-benzoyl)-piperidin-1-yl]-1-phenyl-ethyl ester; hydrochloride], the ED50 is 4.8 mg/kg under setting [1] and 9.7 mg/kg under setting [2].

Consider `CC(C)OC(=O)OC(CN1CCC(C(=O)c2ccc(F)cc2)CC1)c1cccc(Cl)c1` (centres unmarked) [Carbonic acid 1-(3-chloro-phenyl)-2-[4-(4-fluoro-benzoyl)-piperidin-1-yl]-ethyl ester isopropyl ester], for which, under setting [1], the ED50 turned out to be 6.2 mg/kg.

As to `CCc1ccc(C(CN2CCC(C(=O)c3ccc(F)cc3)CC2)OC(=O)OC)cc1` (centres unmarked) [Carbonic acid 1-(4-ethyl-phenyl)-2-[4-(4-fluoro-benzoyl)-piperidin-1-yl]-ethyl ester methyl ester], the ED50 by setting is: under setting [1], 2.4 mg/kg; under setting [2], 7.6 mg/kg.

As to `CN1CCN(C2=Nc3cc(Cl)ccc3Nc3ccccc32)CC1` [Clozapine, reference compound], the ED50 reads like this: under setting [1], 6.3 mg/kg; under setting [2], 13.5 mg/kg.

`Cc1nc2n(c(=O)c1CCN1CCC(c3noc4cc(F)ccc34)CC1)CCCC2` [Risperidone, reference compound]: the ED50 by setting is: under setting [1], 0.11 mg/kg; under setting [2], 0.29 mg/kg.

In the case of `Cc1ccc(C(CN2CCC(C(=O)c3ccc(F)cc3)CC2)n2cncn2)cc1C` (centres unmarked) [{1-[2-(3,4-Dimethyl-phenyl)-2-[1,2,4]triazol-1-yl-ethyl]-piperidin-4-yl}-(4-fluoro-phenyl)-methanone], the ED50 by setting is: under setting [1], 4.5 mg/kg; under setting [2], 16.6 mg/kg.

As for `CCc1ccc(C(CN2CCC(C(=O)c3ccc(F)cc3)CC2)OC)cc1` (centres unmarked) [{1-[2-(4-Ethyl-phenyl)-2-methoxy-ethyl]-piperidin-4-yl}-(4-fluoro-phenyl)-methanone], under setting [1], the ED50 was 0.87 mg/kg.

Regarding `CCOC(CN1CCC(C(=O)c2ccc(F)cc2)CC1)c1ccc([N+](=O)[O-])cc1` (centres unmarked) [{1-[2-Ethoxy-2-(4-nitro-phenyl)-ethyl]-piperidin-4-yl}-(4-fluoro-1phenyl)-methanone], the “Climbing Mouse Assay ED50 i.p.” value (intraperitoneal administration) worked out at 4.16 mg/kg.
